Measured values taken from PubChem BioAssay (NCI).
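Tested at 5 concentrations; 48 h exposure; 96-well plates; endpoints linearly interpolated, else capped at highest concentration. Here, GI50 denotes the concentration required for 50% inhibition of growth. Definition used: TGI = concentration required for complete inhibition of growth.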

What was measured:
Assay in all cases: inhibition of tumour cell growth, NCI panel, 48 h
NCI-H23 lung = system: NCI-H23 lung
MCF7 breast = system: MCF7 breast
OVCAR-5 ovarian = system: OVCAR-5 ovarian
KM12 colon = system: KM12 colon
SF-268 CNS = system: SF-268 CNS
HCT-116 colon = system: HCT-116 colon
HOP-62 NSCLC = system: HOP-62 NSCLC
UACC-62 melanoma = system: UACC-62 melanoma
NCI-H226 lung = system: NCI-H226 lung
A498 renal = system: A498 renal
IGROV1 ovarian = system: IGROV1 ovarian
NCI/ADR-RES ovarian = system: NCI/ADR-RES ovarian
SK-MEL-2 melanoma = system: SK-MEL-2 melanoma
NCI-H460 lung = system: NCI-H460 lung
PC-3 prostate = system: PC-3 prostate
DU-145 prostate = system: DU-145 prostate
SK-MEL-28 melanoma = system: SK-MEL-28 melanoma
HOP-92 NSCLC = system: HOP-92 NSCLC
A549 NSCLC = system: A549 NSCLC
HS 578T breast = system: HS 578T breast
MOLT-4 leukemia = system: MOLT-4 leukemia
OVCAR-4 ovarian = system: OVCAR-4 ovarian
HT29 colon = system: HT29 colon
SNB-19 CNS = system: SNB-19 CNS
RPMI-8226 leukemia = system: RPMI-8226 leukemia
SK-MEL-5 melanoma = system: SK-MEL-5 melanoma
UACC-257 melanoma = system: UACC-257 melanoma
U251 CNS = system: U251 CNS
UO-31 renal = system: UO-31 renal
HCT-15 colon = system: HCT-15 colon
HL-60(TB) leukemia = system: HL-60(TB) leukemia
MDA-MB-231 breast = system: MDA-MB-231 breast
SN12C renal = system: SN12C renal
CCRF-CEM leukemia = system: CCRF-CEM leukemia
T-47D breast = system: T-47D breast
SW-620 colon = system: SW-620 colon
786-0 renal = system: 786-0 renal
K-562 leukemia = system: K-562 leukemia
SF-295 CNS = system: SF-295 CNS
MDA-MB-435 = system: MDA-MB-435
OVCAR-8 ovarian = system: OVCAR-8 ovarian
COLO 205 colon = system: COLO 205 colon
BT-549 breast = system: BT-549 breast
SR leukemia = system: SR leukemia
CAKI-1 renal = system: CAKI-1 renal
TK-10 renal = system: TK-10 renal
NCI-H522 lung = system: NCI-H522 lung
EKVX NSCLC = system: EKVX NSCLC
SNB-75 CNS = system: SNB-75 CNS
SF-539 CNS = system: SF-539 CNS
HCC-2998 colon = system: HCC-2998 colon
OVCAR-3 ovarian = system: OVCAR-3 ovarian
M14 melanoma = system: M14 melanoma
ACHN renal = system: ACHN renal
LOX IMVI melanoma = system: LOX IMVI melanoma

COc1ccc2c(c1)CCC1C2CCC2(C)C3=CC(O)CCC3CC12 (stereo not given) was tested, and the GI50 (NCI-H23 lung) was 15.8 µM, the TGI (NCI-H23 lung) was 30.1 µM and the GI50 (MCF7 breast) was 24.8 µM. It also gave a TGI (MCF7 breast) of 50.5 µM, a GI50 (OVCAR-5 ovarian) of 15.2 µM and a TGI (OVCAR-5 ovarian) of 29.1 µM. The GI50 (KM12 colon) was 19.8 µM, the TGI (KM12 colon) was 40.1 µM and the GI50 (SF-268 CNS) was 20.3 µM. The TGI (SF-268 CNS) was 40.6 µM, the GI50 (HCT-116 colon) was 15.7 µM and the TGI (HCT-116 colon) was 29.6 µM. The GI50 (HOP-62 NSCLC) was 19.6 µM, the TGI (HOP-62 NSCLC) was 34.4 µM and the GI50 (UACC-62 melanoma) was 12.5 µM. It also gave a TGI (UACC-62 melanoma) of 25 µM, a GI50 (NCI-H226 lung) of 18 µM and a TGI (NCI-H226 lung) of 40.7 µM. The GI50 (A498 renal) was 16.7 µM, the TGI (A498 renal) was 35.4 µM and the GI50 (IGROV1 ovarian) was 16.7 µM. The TGI (IGROV1 ovarian) was 37.2 µM, the GI50 (NCI/ADR-RES ovarian) was 16 µM and the TGI (NCI/ADR-RES ovarian) was 34.5 µM. For the same compound, the GI50 (SK-MEL-2 melanoma) was 18.9 µM, the TGI (SK-MEL-2 melanoma) was 56.6 µM and the GI50 (NCI-H460 lung) was 19.4 µM. For the same compound, the TGI (NCI-H460 lung) was 40.7 µM, the GI50 (PC-3 prostate) was 15.2 µM and the TGI (PC-3 prostate) was 31.1 µM. For the same compound, the GI50 (DU-145 prostate) was 15.7 µM, the TGI (DU-145 prostate) was 30.2 µM and the GI50 (SK-MEL-28 melanoma) was 21.8 µM. For the same compound, the TGI (SK-MEL-28 melanoma) was 51.5 µM, the GI50 (HOP-92 NSCLC) was 22.6 µM and the TGI (HOP-92 NSCLC) was 45.2 µM. The GI50 (A549 NSCLC) was 14.7 µM, the TGI (A549 NSCLC) was 31.6 µM and the GI50 (HS 578T breast) was 23.4 µM. For the same compound, the TGI (HS 578T breast) was 49.1 µM, the GI50 (MOLT-4 leukemia) was 18.3 µM and the TGI (MOLT-4 leukemia) was 43.7 µM. It also gave a GI50 (OVCAR-4 ovarian) of 28 µM, a TGI (OVCAR-4 ovarian) of 75.1 µM and a GI50 (HT29 colon) of 11 µM. The TGI (HT29 colon) was 37.4 µM, the GI50 (SNB-19 CNS) was 21.5 µM and the TGI (SNB-19 CNS) was 42.5 µM. For the same compound, the GI50 (RPMI-8226 leukemia) was 16.7 µM, the TGI (RPMI-8226 leukemia) was 43.9 µM and the GI50 (SK-MEL-5 melanoma) was 11.7 µM. The TGI (SK-MEL-5 melanoma) was 23.9 µM, the GI50 (UACC-257 melanoma) was 12.7 µM and the TGI (UACC-257 melanoma) was 26.2 µM. For the same compound, the GI50 (U251 CNS) was 14 µM, the TGI (U251 CNS) was 27.4 µM and the GI50 (UO-31 renal) was 19.8 µM. The TGI (UO-31 renal) was 40.9 µM, the GI50 (HCT-15 colon) was 7.06 µM and the TGI (HCT-15 colon) was 21.2 µM. For the same compound, the GI50 (HL-60(TB) leukemia) was 15.6 µM, the TGI (HL-60(TB) leukemia) was 35.5 µM and the GI50 (MDA-MB-231 breast) was 17.6 µM. It also gave a TGI (MDA-MB-231 breast) of 34.8 µM, a GI50 (SN12C renal) of 16.4 µM and a TGI (SN12C renal) of 30.9 µM. It also gave a GI50 (CCRF-CEM leukemia) of 15.6 µM, a TGI (CCRF-CEM leukemia) of 36.3 µM and a GI50 (T-47D breast) of 23 µM. It also gave a TGI (T-47D breast) of 64.5 µM, a GI50 (SW-620 colon) of 14.4 µM and a TGI (SW-620 colon) of 30.1 µM. It also gave a GI50 (786-0 renal) of 17.4 µM, a TGI (786-0 renal) of 33.3 µM and a GI50 (K-562 leukemia) of 13.1 µM. The TGI (K-562 leukemia) was 35.5 µM, the GI50 (SF-295 CNS) was 20.4 µM and the TGI (SF-295 CNS) was 46.1 µM. The GI50 (MDA-MB-435) was 15.3 µM, the TGI (MDA-MB-435) was 35.4 µM and the GI50 (OVCAR-8 ovarian) was 18 µM. For the same compound, the TGI (OVCAR-8 ovarian) was 36.7 µM, the GI50 (COLO 205 colon) was 32.7 µM and the TGI (COLO 205 colon) was 88.7 µM. The GI50 (BT-549 breast) was 18.8 µM, the TGI (BT-549 breast) was 41.5 µM and the GI50 (SR leukemia) was 14.3 µM. For the same compound, the TGI (SR leukemia) was 37.5 µM, the GI50 (CAKI-1 renal) was 21.9 µM and the TGI (CAKI-1 renal) was 45.5 µM. For the same compound, the GI50 (TK-10 renal) was 21.2 µM, the TGI (TK-10 renal) was 43.2 µM and the GI50 (NCI-H522 lung) was 14.3 µM. It also gave a TGI (NCI-H522 lung) of 31.5 µM, a GI50 (EKVX NSCLC) of 16.9 µM and a TGI (EKVX NSCLC) of 36.2 µM. For the same compound, the GI50 (SNB-75 CNS) was 43.5 µM, the TGI (SNB-75 CNS) was greater than 100 µM and the GI50 (SF-539 CNS) was 18.3 µM. For the same compound, the TGI (SF-539 CNS) was 34.7 µM, the GI50 (HCC-2998 colon) was 14.3 µM and the TGI (HCC-2998 colon) was 27.4 µM. It also gave a GI50 (OVCAR-3 ovarian) of 25.1 µM, a TGI (OVCAR-3 ovarian) of 53.6 µM and a GI50 (M14 melanoma) of 15.7 µM. The TGI (M14 melanoma) was 30.2 µM, the GI50 (ACHN renal) was 20.1 µM and the TGI (ACHN renal) was 34.7 µM. The GI50 (LOX IMVI melanoma) was 15.4 µM and the TGI (LOX IMVI melanoma) was 31.8 µM.
